Two compounds from patent US11731973B2, “Substituted pyrazolo[3,4-d]pyrimidines as mTOR inhibitors” (GALDERMA RESEARCH & DEVELOPMENT, priority 2018, dated 2023) can be followed below.

Assay [1] has as its target mTOR (Homo sapiens (Human), UniProt P42345). Kind of assay: Inhibitory activity on mTOR kinase (LANTHASCREEN TR-FRET). The format is biochemical. The note with it: 1 hour reaction at room temperature. A general note: In TR-FRET formats the signal depends on donor and acceptor labels being close together.
Procedure: After 1 hour of reaction at room temperature, 10 μL of a solution containing 10 mM final of EDTA and 2 nM final of terbium-labeled antibodies are added. After at least 30 minutes of incubation at room temperature, the TR-FRET signal is measured with a suitable microplate reader according to the supplier's recommendations. […] The IC50 values are calculated using a 4-parameter logistic model with the aid of the XLFit software (IDBS).
Assay [2] has as its target mTORC2 (Homo sapiens (Human), UniProt P42345). Briefly: mTORC2 inhibitory activity: phosphorylation of AKT in A431 cells (HTRF). It is filed as cell-based. The note with it: 3 hours at 37° C.
Procedure: (§1) The serial dilutions of the test molecules are added (0.1% DMSO final). After incubation for 3 hours at 37° C., the phosphorylation of the biomarkers S6RP (mTORC1) and AKT (mTORC2) is measured using the HTRF technology (Cisbio) according to the supplier's recommendations. […] The IC50 values are calculated using a 4-parameter logistic model with the aid of the XLFit software (IDBS).
Assay [3] deals with patch model of atopic dermatitis. Briefly: Patch model of atopic dermatitis (DERP epicutaneous sensitization) in mice. The note with it: 0.07% in acetone vehicle, topical. It is filed as in vivo, Balb/c mice. On the procedure:
The antagonist (mTOR inhibitor) according to example 31 tested was formulated at 0.07% in an acetone vehicle, applied to the skin of the back of the mouse (10 μl/ear on the two faces) and left for 2 hours before applying the DERP patches. Topical treatments with the antagonist (mTOR inhibitor) or a corticosteroid (betamethasone 17-valerate at 0.01% used as control) were performed only three times in the course of the third and final week of sensitization (on days 44, 47 and 50).
The transepidermal water loss TEWL is measured using a […]® on a control animal. The […]® probe measures the density gradient of water evaporation from the skin indirectly by means of two pairs of sensors (temperature and relative humidity) inside a hollow cylinder. A microprocessor analyzes the values and expresses the evaporation rate in g/h/m2.
The epidermal thickness is measured by histological morphometric analyses on sections 6 μm thick stained with HE using skin samples fixed beforehand with […].
The inflammation score is defined visually as a function of predefined scales of dryness, cutaneous eruption, baldness, excoriation and lichenification. The mean of the five scores attributed to an individual mouse on a given day gives the clinical score attributed on that specific day.
To evaluate the contribution of mTOR to the inflammatory response of atopic dermatitis, the inventors used an atopic dermatitis model described previously based on repeated epicutaneous sensitizations (Spergel et al. JCI 1998; Staumont-Sallé et al. JEM 2015), with Dermatophagoides pteronyssinus (DERP) as antigen. In this model, the skin lesions caused by the atopic dermatitis present inflammation with Th2 dominant characterized by dermal infiltration of CD4+T lymphocytes and of eosinophils accompanied by deposition of eosinophil products and an increase in the cutaneous expression of the Th2 cytokines.
Following the protocol of example 33, the inflammatory response of atopic dermatitis was provoked by epicutaneous sensitization with patches soaked with 100 μg of allergen in sterile saline solution (Dermatophagoides pteronyssinus or DERP) or with a vehicle applied to the abdominal skin 24 hours after shaving and left in place for three periods of one week (with renewal of the patch in the middle of the week), with a 2-week interval between the applications. The presence of the patches and of a transparent occlusive dressing on top prevented the mice from licking, biting and scratching; consequently, the inflammatory response in this model is not due to the itching cycle.
The antagonist according to example 31 (mTOR inhibitor) was formulated at 0.07% in an acetone-based vehicle, applied to the sensitized skin 2 hours before installation of the DERP patches. […]

The target of assay [4] is mTORC1 (Homo sapiens (Human), UniProt P42345). Briefly: mTORC1 inhibitory activity: phosphorylation of S6RP in A431 cells (HTRF). The format is cell-based. The conditions noted are these: 3 hours at 37° C.
Procedure: as §1
The mark [5] stands for this setting: days 44, 47 and 50, female Balb/c mice, DERP patches.

Molecules are shown by their SMILES.

By Ki is commonly meant the dissociation constant of the complex between target and ligand, obtained from inhibition or displacement. One may read the IC50 as the midpoint of a concentration-inhibition curve. Higher therefore signals weaker potency in that assay. Take `CC(C)n1nc(-c2ccc3oc(N)nc3c2)c2c(Cl)nc(N)nc21` [Example 31, 5-(6-Amino-4-chloro-1-isopropyl-1H-pyrazolo[3,4-d]pyrimidin-3-yl)benzo[d]oxazol-2-amine]: the Ki in assay [1] worked out at 10 nM. The IC50 in assay [2] stood at 21 nM. In addition, in assay [3] (setting [5]), the “change in epidermal thickness (epidermal acanthosis)” value was −39%, the “change in inflammatory scores” value is −40 and the “decrease of the increase in the rate of transepidermal water loss TEWL” value is reported as −68%. Moreover, the “effect on the parameters studied (TEWL, epidermal thickness, inflammation score)” value in assay [3] (DERP patch model in mice) is “reduces all the parameters studied”. The half-inhibitory concentration (IC50) in assay [4] was determined as 8.4 nM.

Turning to `CC(C)(C)Cn1nc(-c2ccc3oc(N)nc3c2Cl)c2c(N)nc(N)nc21` [Example 17, 3-(2-amino-4-chlorobenzoxazol-5-yl)-1-(2,2-dimethylpropyl)-1H-pyrazolo[3,4-d]pyrimidine-4,6-diamine], the Ki in assay [1] stood at 1.8 nM. For the same compound, the IC50 in assay [2] stood at 4 nM; in assay [4], 1.2 nM.
